# According to the supplement of paper PMC10307832:
# Assays:
# Experiment in all cases: relative viability (nuclei count vs DMSO), 5 days (fraction); higher = more cells survive
# Carboplatin + Lapatinib = compound: C1CC(C1)(C(=O)O)C(=O)O.[NH2-].[NH2-].[Pt+2] [Carboplatin] + CS(=O)(=O)CCNCc1ccc(-c2ccc3ncnc(Nc4ccc(OCc5cccc(F)c5)c(Cl)c4)c3c2)o1 [Lapatinib] (partner 2 µM)
# Outline: (§1)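 Lung cancer cell lines in 1536-well plates got either a single drug or a fixed anchor-drug dose together with five library-drug doses (not always all listed) in √10 steps, by pin tool, on the day after seeding. Nuclei were counted after 5 days, and relative viability is the treated-to-vehicle ratio of nuclei counts. Values are medians of duplicate plates.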
# Carboplatin + Pictilisib = compound: C1CC(C1)(C(=O)O)C(=O)O.[NH2-].[NH2-].[Pt+2] [Carboplatin] + CS(=O)(=O)N1CCN(Cc2cc3nc(-c4cccc5[nH]ncc45)nc(N4CCOCC4)c3s2)CC1 [Pictilisib] (partner 1 µM)
# Outline: as §1
# MLN4924 + Pictilisib = compound: NS(=O)(=O)OC[C@@H]1C[C@@H](n2ccc3c(N[C@H]4CCc5ccccc54)ncnc32)C[C@@H]1O [MLN4924] + CS(=O)(=O)N1CCN(Cc2cc3nc(-c4cccc5[nH]ncc45)nc(N4CCOCC4)c3s2)CC1 [Pictilisib] (partner 1 µM)
# Outline: as §1
# MLN4924 + Decitabine = compound: NS(=O)(=O)OC[C@@H]1C[C@@H](n2ccc3c(N[C@H]4CCc5ccccc54)ncnc32)C[C@@H]1O [MLN4924] + Nc1ncn([C@H]2C[C@H](O)[C@@H](CO)O2)c(=O)n1 [Decitabine] (partner 2 µM)
# Outline: as §1
Cell Line,relative viability (Carboplatin + Lapatinib; first compound 0.08 µM),relative viability (Carboplatin + Lapatinib; first compound 0.253 µM),relative viability (Carboplatin + Lapatinib; first compound 0.8 µM),relative viability (Carboplatin + Lapatinib; first compound 2.53 µM),relative viability (Carboplatin + Lapatinib; first compound 8 µM),relative viability (Carboplatin + Pictilisib; first compound 0.08 µM),relative viability (Carboplatin + Pictilisib; first compound 0.253 µM),relative viability (Carboplatin + Pictilisib; first compound 0.8 µM),relative viability (Carboplatin + Pictilisib; first compound 2.53 µM),relative viability (Carboplatin + Pictilisib; first compound 8 µM),relative viability (MLN4924 + Pictilisib; first compound 0.04 µM),relative viability (MLN4924 + Pictilisib; first compound 0.1265 µM),relative viability (MLN4924 + Pictilisib; first compound 0.4 µM),relative viability (MLN4924 + Pictilisib; first compound 1.265 µM),relative viability (MLN4924 + Pictilisib; first compound 4 µM),relative viability (MLN4924 + Decitabine; first compound 0.04 µM),relative viability (MLN4924 + Decitabine; first compound 0.1265 µM),relative viability (MLN4924 + Decitabine; first compound 0.4 µM),relative viability (MLN4924 + Decitabine; first compound 1.265 µM),relative viability (MLN4924 + Decitabine; first compound 4 µM)
LXF-289,0.908,0.936,0.91,0.89,0.891,0.889,0.883,0.8,0.832,0.766,0.683,0.688,0.374,0.134,0.0975,0.346,0.323,0.28,0.183,0.133
NCI-H23,1.16,1.25,1,1.02,0.783,0.477,0.483,0.481,0.472,0.391,0.249,0.288,0.183,0.0988,0.141,0.344,0.329,0.276,0.249,0.21
NCI-H322M,0.653,0.639,0.55,0.561,0.609,0.567,0.465,0.507,0.542,0.521,0.556,0.855,0.669,0.291,0.333,0.707,0.65,0.62,0.469,0.491
NCI-H358,0.483,0.474,0.538,0.485,0.543,0.373,0.366,0.321,0.448,0.376,0.481,0.496,0.227,0.175,0.188,0.2,0.206,0.183,0.111,0.148
NCI-H460,0.977,0.87,0.957,0.779,0.336,0.379,0.356,0.352,0.321,0.213,0.506,0.729,0.618,0.191,0.0906,0.524,0.462,0.325,0.0402,0.0249
NCI-H520,1.07,0.985,1.03,0.784,0.59,0.357,0.227,0.27,0.297,0.258,0.322,0.402,0.359,0.276,0.238,0.447,0.338,0.249,0.148,0.207
NCI-H596,1.21,1,1.07,0.943,0.886,0.455,0.36,0.389,0.333,0.373,0.419,0.448,0.273,0.379,0.349,1.09,1.1,0.933,0.97,0.727
NCI-H647,1.29,1.1,1.02,0.98,0.862,0.572,0.477,0.368,0.482,0.429,0.318,0.469,0.274,0.0538,0.0717,0.363,0.221,0.142,0.0732,0.0787
NCI-H650,1.06,0.852,0.876,0.976,0.521,0.948,1.03,0.826,0.791,0.562,0.79,0.508,0.335,0.208,0.214,0.272,0.253,0.201,0.167,0.165
NCI-H661,0.649,0.511,0.331,0.369,0.459,0.431,0.393,0.368,0.34,0.402,0.414,0.567,0.482,0.343,0.337,0.587,0.539,0.422,0.281,0.331
NCI-H727,0.998,0.782,0.85,0.745,0.448,0.348,0.512,0.314,0.29,0.352,0.4,0.311,0.268,0.291,0.244,0.783,0.823,0.546,0.493,0.502
NCI-H838,1.05,1.1,1.04,0.951,1.04,0.476,0.391,0.469,0.454,0.485,0.365,0.236,0.253,0.138,0.189,0.351,0.257,0.224,0.176,0.186
NCI-H1355,1.12,1.11,1.09,1.06,0.93,0.394,0.537,0.461,0.431,0.454,0.332,0.421,0.273,0.182,0.176,0.367,0.307,0.321,0.215,0.184
NCI-H1395,1.23,1.06,0.984,0.841,0.607,0.722,0.548,0.854,0.548,0.513,0.626,0.969,0.425,0.313,0.339,0.704,0.596,0.461,0.359,0.346
NCI-H1437,0.869,0.832,0.838,0.887,0.641,0.433,0.401,0.414,0.381,0.413,0.423,0.409,0.355,0.0891,0.081,0.529,0.435,0.438,0.254,0.249
NCI-H1650,0.944,0.878,0.825,0.795,0.661,0.741,0.651,0.563,0.519,0.416,0.373,0.245,0.182,0.124,0.183,0.371,0.388,0.252,0.175,0.193
